Counter-ions that a name gives are not always drawn.
Experiments:
[1] = system: NCI-2052H cells; assay: Cytotoxicity assay (MTS) of NCI-2052H cells: bleomycin, mitomycin, doxorubicin, paclitaxel, talc, talc bound to drugs (Example 23); type: cell-based; conditions: for Average readings: cells + drug, bleomycin / Average reading: cells + drug, mitomycin: absorbance 490 nm
[2] = system: NCI-28H cells; assay: Cytotoxicity assay (MTS) of NCI-28H cells treated with bleomycin, talc, talc bound to bleomycin (Example 16); type: cell-based; conditions: 72 hrs
Method: Read absorbance (MTS assay) and calculate cells survival rate.
1. […] 500,000 cells/670,000=0.75 ml of cells/media mix need to take from flask and transfer to 9.25 ml media. […] Gently mix.
1. Bring back tubes from cold room to laboratory. Centrifuge 3200 rpm for 3 min. Take out supernatant.
3. Wash cells 2×300 μL DPBS, remove final wash.
6. Incubate plate 1 hr at 37° C., 5% CO2.

[3] = system: NCI-2052H cells; assay: Repeated cytotoxicity experiment (MTS): NCI-2052H cells, mitomycin, talc, talc bound to mitomycin (Example 24); type: cell-based; conditions: for Average reading: drug + cells: absorbance 490 nm
Method: Compare survival rate of cells.
1. […] Protocol how to do that see in previous cytotoxicity experiment.
(§1) 1. Centrifuge tubes at 3200 rpm for 3 min. Take out supernatant.
1. Incubate plate for 72 hrs at 37° C., 5% CO2.
3. Wash all wells 1×300 μL DPBS, remove final wash.

[4] = system: NCI-28H cells; assay: Cytotoxicity assay (MTS) of NCI-28H cells: carboplatin, mitomycin, gemcitabine, talc, talc bound to drugs (Example 22); conditions: NCI-28H cells; for Average absorbance readings: cells + drug, mitomycin: 490 nm
Method: Read absorbance (MTS assay) and calculate cells survive rate. Compare survival rate
1. Set up 3 cytotoxicity plates for tomorrow experiment: trypsinize NCI-28H cells (T-75 flask, passage 12): • Remove old medium, wash cells with 7 ml DPBS, remove DPBS, add 2 ml trypsin, incubate plates for 1-2′, when cells detached add 6 ml fresh medium, mix cells and medium. • Count cells under the microscope using the glass slide. […] If we need 200 wells, in each well will be 5,000 cells in 0.1 ml; so total we need 1,000,000 cells in 20 ml.
2. […] Final solution is 500 μL of 500 μM carboplatin.
4. […] Final solution is 500 μL of 200 μM Gemcitabine.
as §1
3. Add 100 μL of each 8 preparations of diluted carboplatin (step 1 and 2) to the proper wells according to a plate layout.
4. Add 100 μL of each 8 preparations of diluted Gemcitabine (step 1, 2, 3) to the proper wells according to a plate layout.
6. Check the plate and start incubation at 37° C./5% CO2.
3. Wash all cells 1×300 μL DPBS, remove final wash.

[5] = Talc bound to HRP- and cold-Avidin, 48 hours in PBS containing 10% FBS (Example 14); type: physicochemical
Method: Purpose: To check how strong the conjugate of hot/cold Avidin to Talc is. […] Absorbance will be checked twice—once before washing with PBS containing 10% FBS and after 48 hours, washing will be done.
6. Weigh 8 mg of Avidin (cold Avidin), then resuspend it in 2 mL of PBS containing 40 ng/mL of “hot” Avidin. So the solution will now be 40 ng/mL hot Avidin+4 mg/mL of Cold Avidin. Label this tube as #1.
14. […] Two identical microplates need to be set up, labeling them as: plate #1 and plate #2. Design of the plate:
3. Wash both plates 3× with 300 μL PBS.
5. […] Mix constantly, cover plate with Aluminum foil.
6. Add 100 μL of TMB to samples in plate #1.
9. Read absorbance at 450 nm using the plate reader.
3. Collect 100 μL supernatant from samples except native controls and load on same plate.
4. Wash plate except supernatant samples 3× with 300 μL PBS.
6. Add 100 μL of TMB to all samples in plate#2.

For `Cc1c(N)nc([C@H](CC(N)=O)NC[C@H](N)C(N)=O)nc1C(=O)N[C@H](C(=O)N[C@H](C)[C@@H](O)[C@H](C)C(=O)N[C@H](C(=O)NCCc1nc(-c2nc(C(=O)NCCC[S+](C)C)cs2)cs1)[C@@H](C)O)[C@@H](O[C@@H]1OC(CO)[C@@H](O)C(O)C1O[C@H]1OC(CO)[C@@H](O)C(OC(N)=O)C1O)c1c[nH]cn1` (stereo partly drawn) [Bleomycin, Bleomycin sulfate Streptomyces verticillus], the “% survival from untreated cells” value ([1]; Bleomycin 0.24 ug/ml) was 101.64%, the “% survival from untreated cells” value ([1]; Bleomycin 0.97 ug/ml) was 97.34% and the “% survival from untreated cells” value ([1]; Bleomycin 3.9 ug/ml) was 88.64%. For the same molecule, the “% survival from untreated cells” value ([1]; Bleomycin 15.6 ug/ml) was 51.72%, the “% survival from untreated cells” value ([1]; Bleomycin 62.5 ug/ml) was 38.34% and the “% survival from untreated cells” value ([1]; Bleomycin 250 ug/ml) was 20.89%. The “% survival from untreated cells” value ([1]; Bleomycin 1000 ug/ml) was 14.62%, the “Average readings: cells + drug, bleomycin” value (from here on “Average readings”) ([1]; bleomycin 0.24 μg/ml) was 1.3454 and the “Average readings” value ([1]; bleomycin 0.97 μg/ml) was 1.2884. The “Average readings” value ([1]; bleomycin 3.9 μg/ml) was 1.1733, the “Average readings” value ([1]; bleomycin 15.6 μg/ml) was 0.6846 and the “Average readings” value ([1]; bleomycin 62.5 μg/ml) was 0.5075. The “Average readings” value ([1]; bleomycin 250 μg/ml) was 0.2766, the “Average readings” value ([1]; bleomycin 1000 μg/ml) was 0.1935 and the “% survival NCI-28H cells after treatment with BLEOMYCIN” value (shortened to “% survival NCI-28H cells”) ([2]; 0.004 ug/ml) was 92.41%. For the same molecule, the “% survival NCI-28H cells” value ([2]; 0.015 ug/ml) was 88.25%, the “% survival NCI-28H cells” value ([2]; 0.06 ug/ml) was 93.38% and the “% survival NCI-28H cells” value ([2]; 0.24 ug/ml) was 91.86%. The “% survival NCI-28H cells” value ([2]; 0.97 ug/ml) was 86.19%, the “% survival NCI-28H cells” value ([2]; 3.9 ug/ml) was 71.05% and the “% survival NCI-28H cells” value ([2]; 15.6 ug/ml) was 74.60%. The “% survival NCI-28H cells” value ([2]; 62.5 ug/ml) was 68.76%, the “% survival NCI-28H cells” value ([2]; 250 ug/ml) was 47.13% and the “% survival NCI-28H cells” value ([2]; 1000 ug/ml) was 24.92%.
For `CO[C@@]12[C@H](COC(N)=O)C3=C(C(=O)C(C)=C(N)C3=O)N1C[C@@H]1N[C@@H]12` [mitomycin], the “Average reading: cells + drug, mitomycin” value ([1]; mitomycin 0.013 μM) was 1.284, the “Average reading: cells + drug, mitomycin” value ([1]; mitomycin 0.064 μM) was 1.199 and the “Average reading: cells + drug, mitomycin” value ([1]; mitomycin 8 μM) was 0.4142. For the same molecule, the “Average reading: cells + drug, mitomycin” value ([1]; mitomycin 40 μM) was 0.2305, the “Average reading: cells + drug, mitomycin” value ([1]; mitomycin 200 μM) was 0.2098 and the “Average reading: cells + drug, mitomycin” value ([1]; mitomycin .0026 μM) was 1.424. For the same molecule, the “Average reading: drug + cells” value ([3]; Mitomycin 0.013 uM) was 0.7907, the “Average reading: drug + cells” value ([3]; Mitomycin 0.064 uM) was 0.8267 and the “Average reading: drug + cells” value ([3]; Mitomycin 8 uM) was 0.4217. For the same molecule, the “Average reading: drug + cells” value ([3]; Mitomycin 40 uM) was 0.2257, the “Average reading: drug + cells” value ([3]; Mitomycin 200 uM) was 0.2243 and the “Average reading: drug + cells” value ([3]; Mitomycin .0026 uM) was 0.8637. For the same molecule, the “% survival from untreated cells” value ([3]; mitomycin 0.0026 (uM per Table 103)) was 78.87%, the “% survival from untreated cells” value ([3]; mitomycin 0.013 (uM per Table 103)) was 72.21% and the “% survival from untreated cells” value ([3]; mitomycin 0.064 (uM per Table 103)) was 75.49%. The “% survival from untreated cells” value ([3]; mitomycin 0.32 (uM per Table 103)) was 75.10%, the “% survival from untreated cells” value ([3]; mitomycin 1.6 (uM per Table 103)) was 61.83% and the “% survival from untreated cells” value ([3]; mitomycin 8 (uM per Table 103)) was 38.51%. The “% survival from untreated cells” value ([3]; mitomycin 40 (uM per Table 103)) was 20.61%, the “% survival from untreated cells” value ([3]; mitomycin 200 (uM per Table 103)) was 20.49% and the “Average absorbance readings: cells + drug, mitomycin” value (“Average absorbance readings” below) ([4]; mitomycin 0.0026 μM) was 2.032. The “% survival cells after exposure to drug for 72 hrs (cells + drug only), mitomycin” value (shortened to “% survival cells after exposure to drug”) ([4]; mitomycin 0.0026 μM) was 106.12%, the “Average absorbance readings” value ([4]; mitomycin 0.013 μM) was 1.965 and the “% survival cells after exposure to drug” value ([4]; mitomycin 0.013 μM) was 102.65%. The “Average absorbance readings” value ([4]; mitomycin 0.064 μM) was 1.8766, the “% survival cells after exposure to drug” value ([4]; mitomycin 0.064 μM) was 98.03% and the “Average absorbance readings” value ([4]; mitomycin 8 μM) was 0.3451. The “% survival cells after exposure to drug” value ([4]; mitomycin 8 μM) was 18.03%, the “Average absorbance readings” value ([4]; mitomycin 40 μM) was 0.52 and the “% survival cells after exposure to drug” value ([4]; mitomycin 40 μM) was 27.16%. The “Average absorbance readings” value ([4]; mitomycin 200 μM) was 0.2464 and the “% survival cells after exposure to drug” value ([4]; mitomycin 200 μM) was 12.87%.
In the case of “Avidin: Avidin from egg white (Sigma); 60,000 m.w. egg-white protein that binds biotin”, the “stability of binding of Avidin to talc” value [5] is reported as “unchanged at 48 hours”.
